Here are results for 13 compounds from ChEMBL document CHEMBL3098009, “Synthesis of a novel series of artemisinin dimers with potent anticancer activity involving Sonogashira cross-coupling reaction” (2014).

Holding throughout (assay type): functional
Experiment [1] deals with MCF7. Nature of the experiment: Cytotoxicity against human MCF7 cells assessed as growth inhibition at 50 uM by SRB assay. Conditions: read-out: GI.
The test system of experiment [2] is MCF7. Put plainly: Cytotoxicity against human MCF7 cells assessed as growth inhibition at 10 uM by SRB assay. Conditions: read-out: GI. On the technique in general: Sulforhodamine B stains cellular protein and so reports cell mass.
Experiment [3] concerns HeLa. Put plainly: Cytotoxicity against human HeLa cells assessed as growth inhibition at 50 uM by SRB assay. Conditions: read-out: GI.
The subject of experiment [4] is HeLa. Put plainly: Cytotoxicity against human HeLa cells assessed as growth inhibition at 10 uM by SRB assay. Conditions: read-out: GI.
The test system of experiment [5] is A549. Put plainly: Cytotoxicity against human A549 cells assessed as growth inhibition at 50 uM by SRB assay. To be noted: read-out: GI.
The nature of experiment [6]: Cytotoxicity against human IMR32 cells assessed as growth inhibition at 50 uM by SRB assay. To be noted: IMR-32, read-out: GI.
The subject of experiment [7] is A549. Nature of the experiment: Cytotoxicity against human A549 cells assessed as growth inhibition at 10 uM by SRB assay. Conditions: read-out: GI.
Experiment [8] is described as follows: Cytotoxicity against human IMR32 cells assessed as growth inhibition at 10 uM by SRB assay. Conditions: IMR-32, read-out: GI.
Experiment [9] in a line: Cytotoxicity against human prostate cancer cells assessed as growth inhibition at 50 uM by SRB assay. Conditions: Cancer cell lines, read-out: GI.
Experiment [10] is described as follows: Cytotoxicity against human prostate cancer cells assessed as growth inhibition at 10 uM by SRB assay. To be noted: Cancer cell lines, read-out: GI.

In the case of `C[C@@H]1CC[C@H]2[C@@H](C)C(OCCC#Cc3ccc(C#CCCOC4O[C@@H]5O[C@@]6(C)CC[C@H]7[C@H](C)CC[C@@H]([C@H]4C)[C@@]57OO6)s3)O[C@@H]3O[C@@]4(C)CC[C@@H]1[C@]32OO4` (stereo partly specified), the inhibition of growth at 50 µM in the experiment on MCF7 [1] came to 41%; in the experiment on HeLa [3], 52%; in the experiment with A549 [5], 78%; in experiment [6] it was 28%; in experiment [9], 53%. For the same compound, the inhibition of growth at 10 µM in the experiment on MCF7 [2] is 31%; in the experiment with HeLa [4], 51%; with A549 [7], 77%; in experiment [8], 26%; in experiment [10], 49%.

With `C[C@@H]1CC[C@H]2[C@@H](C)C(OCCC#Cc3cccc(C#CCCOC4O[C@@H]5O[C@@]6(C)CC[C@H]7[C@H](C)CC[C@@H]([C@H]4C)[C@@]57OO6)c3)O[C@@H]3O[C@@]4(C)CC[C@@H]1[C@]32OO4` (stereo partly specified), the inhibition of growth at 50 µM worked out at 65% in the experiment with A549 [5], 30% in experiment [6] and 60% in experiment [9]. For the same compound, the values for the inhibition of growth at 10 µM (with A549 [7]; in [8]; in [10]) were 60%, 10% and 45%, respectively.

`C[C@@H]1CC[C@H]2[C@@H](C)C(OCC#Cc3ccc(C#CCOC4O[C@@H]5O[C@@]6(C)CC[C@H]7[C@H](C)CC[C@@H]([C@H]4C)[C@@]57OO6)cc3)O[C@@H]3O[C@@]4(C)CC[C@@H]1[C@]32OO4` (stereo partly specified): the inhibition of growth at 50 µM with MCF7 [1] turned out to be 45%; with HeLa [3], 43%; in the experiment with A549 [5], 69%; in [6] it was 56%; in [9], 68%. Besides, the inhibition of growth at 10 µM was determined as 36% with MCF7 [2]; 34% with HeLa [4]; 67% with A549 [7]; 50% in experiment [8]; 56% in experiment [10].

For the compound `C[C@@H]1CC[C@H]2[C@@H](C)C(OCC#Cc3ccc(-c4ccc(C#CCOC5O[C@@H]6O[C@@]7(C)CC[C@H]8[C@H](C)CC[C@@H]([C@H]5C)[C@@]68OO7)cc4)cc3)O[C@@H]3O[C@@]4(C)CC[C@@H]1[C@]32OO4` (stereo partly specified), the inhibition of growth at 50 µM in the experiment on MCF7 [1] amounted to 32%; in the experiment on HeLa [3], 57%; with A549 [5] it was 69%; in [6], 43%; in experiment [9], 68%. For the same compound, the inhibition of growth at 10 µM with MCF7 [2] worked out at 30%; in the experiment on HeLa [4], 47%; in the experiment with A549 [7] it was 64%; in experiment [8], 34%; in experiment [10], 46%.

As for `C[C@@H]1CC[C@H]2[C@@H](C)C(OCC#Cc3ccc(C#CCOC4O[C@@H]5O[C@@]6(C)CC[C@H]7[C@H](C)CC[C@@H]([C@H]4C)[C@@]57OO6)s3)O[C@@H]3O[C@@]4(C)CC[C@@H]1[C@]32OO4` (stereo partly specified), the inhibition of growth at 50 µM in the experiment with MCF7 [1] was determined as 29%; in the experiment on HeLa [3] it was 37%; in the experiment on A549 [5], 73%; in experiment [6] it was 83%; in experiment [9], 47%. The inhibition of growth at 10 µM was determined as 25% in the experiment with MCF7 [2]; 35% with HeLa [4]; 70% in the experiment on A549 [7]; 54% in [8]; 44% in experiment [10].

For the compound `C[C@@H]1CC[C@H]2[C@@H](C)C(OCC#Cc3cccc(C#CCOC4O[C@@H]5O[C@@]6(C)CC[C@H]7[C@H](C)CC[C@@H]([C@H]4C)[C@@]57OO6)c3)O[C@@H]3O[C@@]4(C)CC[C@@H]1[C@]32OO4` (stereo partly specified), the inhibition of growth at 50 µM in the experiment with A549 [5] was found to be 70%; in [6], 45%; in [9] it was 65%. For the same compound, the inhibition of growth at 10 µM in the experiment on A549 [7] was 65%; in experiment [8], 40%; in experiment [10], 50%.

Take `C[C@@H]1CC[C@H]2[C@@H](C)C(OCCC#Cc3ccc(C#CCCOC4O[C@@H]5O[C@@]6(C)CC[C@H]7[C@H](C)CC[C@@H]([C@H]4C)[C@@]57OO6)cc3)O[C@@H]3O[C@@]4(C)CC[C@@H]1[C@]32OO4` (stereo partly specified): the inhibition of growth at 50 µM in the experiment on MCF7 [1] came to 41%; with HeLa [3], 24%; in the experiment with A549 [5] it was 72%; in experiment [6] it was 37%; in experiment [9], 55%. The inhibition of growth at 10 µM in the experiment on MCF7 [2] is 26%; in the experiment on HeLa [4], 20%; with A549 [7], 56%; in experiment [8] it was 11%; in [10], 48%.

As to `C[C@@H]1CC[C@H]2[C@@H](C)C(OCCC#Cc3ccc(-c4ccc(C#CCCOC5O[C@@H]6O[C@@]7(C)CC[C@H]8[C@H](C)CC[C@@H]([C@H]5C)[C@@]68OO7)cc4)cc3)O[C@@H]3O[C@@]4(C)CC[C@@H]1[C@]32OO4` (stereo partly specified), the inhibition of growth at 50 µM worked out at 38% with MCF7 [1]; 50% with HeLa [3]; 74% in the experiment on A549 [5]; 27% in experiment [6]; 47% in experiment [9]. The inhibition of growth at 10 µM with MCF7 [2] was found to be 24%; with HeLa [4], 18%; in the experiment with A549 [7], 67%; in experiment [8] it was 4%; in experiment [10] it was 41%.

For `C[C@@H]1CC[C@H]2[C@@H](C)C(=O)O[C@@H]3O[C@@]4(C)CC[C@@H]1[C@]32OO4` [ARTEMISININ], the inhibition of growth at 50 µM worked out at 36% with MCF7 [1]; 66% in the experiment on HeLa [3]; 38% in the experiment on A549 [5]; 34% in [6]; 40% in [9]. Further, the inhibition of growth at 10 µM in the experiment with MCF7 [2] is 25%; in the experiment with HeLa [4], 51%; with A549 [7] it was 26%; in experiment [8], 24%; in experiment [10], 35%.

`COc1cccc2c1C(=O)c1c(O)c3c(c(O)c1C2=O)C[C@@](O)(C(=O)CO)C[C@@H]3O[C@H]1C[C@H](N)[C@H](O)[C@H](C)O1` [DOXORUBICIN]: in experiment [8], the inhibition of growth at 10 µM amounted to 69%.

Consider `O=c1[nH]cc(F)c(=O)[nH]1` [FLUOROURACIL], for which, in the experiment with HeLa [4], the inhibition of growth at 10 µM was 62%.

In the case of `CO[C@@]12[C@H](COC(N)=O)C3=C(C(=O)C(C)=C(N)C3=O)N1C[C@@H]1N[C@@H]12` [MITOMYCIN], the inhibition of growth at 10 µM in experiment [10] amounted to 65%.

Take `CC(=O)O[C@H]1C(=O)[C@@]2(C)[C@H]([C@H](OC(=O)c3ccccc3)[C@]3(O)C[C@H](OC(=O)[C@H](O)[C@@H](NC(=O)c4ccccc4)c4ccccc4)C(C)=C1C3(C)C)[C@]1(OC(C)=O)CO[C@@H]1C[C@@H]2O` [PACLITAXEL]: in the experiment on A549 [7], the inhibition of growth at 10 µM amounted to 56%.
